Assay results reported in patent publication US8945540B2, “Compositions for enhancing the antibacterial activity of myeloperoxidase and methods of use thereof” (Exoxemis, Inc., priority 2008, dated 2015).
Like-named read-outs stand apart in the source and are kept apart here.

Columns and labels:
[1] = test system: Staphylococcus aureus; assay: Control: microbicidal activity of the amino acid or analogue alone (no glucose, MPO, glucose oxidase) in the presence of blood; type: cell-based; conditions: for log reduction at 5000 µM: Staphylococcus aureus, 1 h, read-out: Log Reduction 60 min
Description: As a control to determine the microbicidal activity of the amino acids alone, the foregoing procedure was followed without replication, except in the absence of glucose, MPO, and glucose oxidase.

[2] = test system: Staphylococcus aureus; assay: Microbicidal activity of the myeloperoxidase system (p-MPO, glucose oxidase, glucose) with amino acids in the presence of blood, CFU plate counts; synergy determination from these CFU; type: cell-based; conditions: for Average Viability CFU/ml 50 min / Log Reduction 50 min: single amino acid 2.5 mM, MPO 4.7 U/ml, GO 4.2 U/ml, in the presence of blood
Procedure: Bacterial suspensions, specifically Staphylococcus aureus in this example, were prepared by the shake flask method to achieve late log to early stationary phase growth. Bacteria were grown 24 hours in trypticase soy broth (TSB) at 35° C. The cultures were centrifuged at 4,000 rpm for 10 minutes and the supernatants removed. The pellet was collected and washed twice with sterile 0.9% normal saline (NS). The washed microorganisms were suspended and diluted with normal saline to a 3 McFarland standard, i.e., approximately 10^9 bacteria colony forming units (CFU) per mL. Actual colony counts are confirmed by serial dilutions (10^−1 to 10^−5 or 10^−6) plated on TSA and incubated overnight at 35° C. To obtain an approximate final working target inoculum of 10^7 CFU/mL, 15 microliters of organisms per mL of final reaction mixture are used.
Glucose oxidase (GO) from Aspergillus Niger was purchased from Biozyme, Inc., UK, Cat #GO3A, 270 U/mg). Porcine Myeloperoxidase (p-MPO) (Exoxemis, Inc., Little Rock, Ark. U.S.A., 375 U/mg). Sterile stock solutions of D-glucose and sodium chloride were prepared and used at a final concentration of 150 mM each. L-Lysine hydrochloride (Spectrum Chemical Cat #L1142) was prepared as a 100 mM stock solution. Catalase (Sigma, Cat #C-40) was prepared as a 1% stock solution in sterile 0.9% normal saline. Blood was collected by venipuncture and used as whole blood within the same day.
Staphylococcus aureus were used to give a final target concentration of 2-3×10^7 CFU (7.4 log 10) per mL and venous whole blood was used to give a final concentration of 3%. Glucose was added to the reaction mixtures to a final concentration of 150 mM, which initiated the microbicidal reaction. The final volume of the reaction mixtures was 1 mL. The reactions were allowed to run from 30 minutes to 2 hours, as needed, at room temperature or at 37° C. in a dry bath. At the specified time points the reaction mixtures were treated with 100 microliters of a catalase solution, containing a minimum of 100 units/μL, to consume remaining peroxide and terminate the oxidative killing. Serial dilution plate counts were performed from the contents of each vial in sterile saline and inoculated onto trypticase soy agar (TSA) for quantitative culture. Plates were then incubated at 37° C. and counts taken at 24 hours. […] The results are shown in Table 1, as the average of 2 replicates.
The amino acids alone, in the absence of MPO were tested to rule out their microbicidal activity. The results are shown in Table 2 to Table 6, as the average of 2 replicates.
The amino acid analogues alone, in the absence of MPO, were tested to rule out their microbicidal activity. […]
The effect of two-way combinations of individual amino acids with L-isoleucine, as potential enhancing agents, for MPO microbicidal action in the presence of blood, was therefore examined by following the procedure of Example 5.
The Actual CFU observed for the pair is then divided by the Predicted CFU and multiplied by 100 to calculate the % of Predicted value. This value is then to be compared to the threshold value, discussed in the next section, to determine whether the pair are synergistic, antagonistic, or additive.
Calculation of appropriate threshold values for determination of synergism and antagonism was based upon the variability of replicated CFU survivor measures.

[3] = amino acid alone 5 mM, MPO 0, GO 0, no glucose, blood, without replication
[4] = MPO 100 μg/mL, AA 20 mM, 30 min
[5] = MPO 100 μg/mL, AA 20 mM, 60 min
[6] = Table 2, amino acid 5 mM (none: 0 mM), MPO 38 U/ml, GO 33.3 U/ml, blood
[7] = L-lysine 5 mM, MPO 9 U/ml, GO 0.833 U/ml, 3% blood
[8] = L-lysine 5 mM, MPO 9 U/ml, GO 8.33 U/ml, 3% blood
[9] = L-lysine 5 mM, MPO 38 U/ml, GO 3.3 U/ml, 3% blood
[10] = L-lysine 5 mM, MPO 38 U/ml, GO 33.3 U/ml, 3% blood
[11] = L-lysine 20 mM, MPO 38 U/ml, GO 3.3 U/ml, 3% blood
[12] = L-lysine 20 mM, MPO 38 U/ml, GO 33.3 U/ml, 3% blood
[13] = L-lysine […], MPO 9 U/ml, GO 0.833 U/ml, 3% blood
[14] = L-lysine […], MPO 9 U/ml, GO 8.33 U/ml, 3% blood
[15] = amino acid analogue alone 5 mM, MPO 0, GO 0, no glucose, blood
[16] = Table 7, amino acid analogue 5 mM, MPO 38 U/ml, GO 33.3 U/ml, blood

## N[C@@H](CO)C(=O)O [L-Serine]
[1]; [3]
  log reduction at 5000 µM: 0
  Average Viability CFU/ml 60 min: 24100000 CFU/ml
[2]; MPO 25 μg/mL, AA 5 mM, 30 min
  Log 10 (CFU + 1) Survivors: 5.0
[2]; MPO 25 μg/mL, AA 5 mM, 60 min
  Log 10 (CFU + 1) Survivors: 0.0
[2]; MPO 25 μg/mL, AA […], 30 min
  Log 10 (CFU + 1) Survivors: 6.8
[2]; MPO 25 μg/mL, AA […], 60 min
  Log 10 (CFU + 1) Survivors: 1.8
[2]; MPO 100 μg/mL, AA 5 mM, 30 min
  Log 10 (CFU + 1) Survivors: 5.0
[2]; MPO 100 μg/mL, AA 5 mM, 60 min
  Log 10 (CFU + 1) Survivors: 0.0
[2]; [4]
  Log 10 (CFU + 1) Survivors: 5.8
[2]; [5]
  Log 10 (CFU + 1) Survivors: 0.0
[2]; [6]
  Average Viability CFU/ml 60 min: 0 CFU/ml
  Log 10 (CFU + 1) Survivors 60 min: 0.0
  Log Reduction 60 min: 7.4
[2]; Table 10
  Average Viability CFU/ml 50 min: 1175000 CFU/ml
  Log Reduction 50 min: 1.3
[2]; Table 13
  Average Viability CFU/ml 50 min: 835000 CFU/ml
  Log Reduction 50 min: 1.5
[2]; Table 14
  Average Viability CFU/ml 50 min: 940000 CFU/ml
  Log Reduction 50 min: 1.5

## NCCCC[C@H](N)C(=O)O [L-Lysine]
[1]
  log reduction at 5000 µM: 0
[1]; [3]
  Average Viability CFU/ml 60 min: 21400000 CFU/ml
[2]; [7]
  Average Viability CFU/ml 30 min: 775000 CFU/ml
  Average Viability CFU/ml 60 min: 53000 CFU/ml
  Log Reduction 30 min: 1.5
  Log Reduction 60 min: 2.7
[2]; [8]
  Average Viability CFU/ml 30 min: 675000 CFU/ml
  Average Viability CFU/ml 60 min: 47 CFU/ml
  Log Reduction 30 min: 1.6
  Log Reduction 60 min: 5.7
[2]; [9]
  Average Viability CFU/ml 30 min: 6050 CFU/ml
  Average Viability CFU/ml 60 min: 770 CFU/ml
  Log Reduction 30 min: 3.6
  Log Reduction 60 min: 4.5
[2]; [10]
  Average Viability CFU/ml 30 min: 7 CFU/ml
  Average Viability CFU/ml 60 min: 3 CFU/ml
  Log Reduction 30 min: 6.5
  Log Reduction 60 min: 6.8
[2]; [11]
  Average Viability CFU/ml 30 min: 6450 CFU/ml
  Average Viability CFU/ml 60 min: 620 CFU/ml
  Log Reduction 30 min: 3.6
  Log Reduction 60 min: 4.6
[2]; [12]
  Average Viability CFU/ml 30 min: 5 CFU/ml
  Average Viability CFU/ml 60 min: 5 CFU/ml
  Log Reduction 30 min: 6.6
  Log Reduction 60 min: 6.6
[2]; [13]
  Average Viability CFU/ml 30 min: 5050000 CFU/ml
  Average Viability CFU/ml 60 min: 620000 CFU/ml
  Log Reduction 30 min: 0.7
  Log Reduction 60 min: 1.6
[2]; [14]
  Average Viability CFU/ml 30 min: 6200000 CFU/ml
  Average Viability CFU/ml 60 min: 4950 CFU/ml
  Log Reduction 30 min: 0.6
  Log Reduction 60 min: 3.7
[2]; MPO 25 μg/mL, AA 5 mM, 30 min
  Log 10 (CFU + 1) Survivors: 5.8
[2]; MPO 25 μg/mL, AA 5 mM, 60 min
  Log 10 (CFU + 1) Survivors: 1.6
[2]; MPO 25 μg/mL, AA […], 30 min
  Log 10 (CFU + 1) Survivors: 6.8
[2]; MPO 25 μg/mL, AA […], 60 min
  Log 10 (CFU + 1) Survivors: 3.7
[2]; MPO 100 μg/mL, AA 5 mM, 30 min
  Log 10 (CFU + 1) Survivors: 0.9
[2]; MPO 100 μg/mL, AA 5 mM, 60 min
  Log 10 (CFU + 1) Survivors: 0.5
[2]; [4]
  Log 10 (CFU + 1) Survivors: 0.8
[2]; [5]
  Log 10 (CFU + 1) Survivors: 0.8
[2]; [6]
  Average Viability CFU/ml 60 min: 0 CFU/ml
  Log 10 (CFU + 1) Survivors 60 min: 0.0
  Log Reduction 60 min: 7.4
[2]; Table 10
  Average Viability CFU/ml 50 min: 16200000 CFU/ml
  Log Reduction 50 min: 0.2
[2]; Table 11
  Average Viability CFU/ml 50 min: 18900000 CFU/ml
  Log Reduction 50 min: 0.2
[2]; Table 13
  Average Viability CFU/ml 50 min: 11400000 CFU/ml
  Log Reduction 50 min: 0.3
[2]; Table 14
  Average Viability CFU/ml 50 min: 16950000 CFU/ml
  Log Reduction 50 min: 0.2

## CCOC(=O)C(C)N (stereo not shown) [Ethyl 2-aminopropanoate]
[1]; [15]
  log reduction at 5000 µM: 0
  Average Viability CFU/ml 60 min: 23200000 CFU/ml
[2]; [16]
  Average Viability CFU/ml 60 min: 0 CFU/ml
  Log Reduction 60 min: 7.4
